Consider 5 molecules from article PMC5506877 (Heliyon, 2017).

“And” between values parts separate entries of the source, which are not always exact repeats. Identical values can stand only once.

The conditions of data set [1]: cited from earlier work.
Data set [2] is described as follows: plasma protein binding by equilibrium dialysis. Type of data set: in vitro ADME, human. The following applies: for recovery at 24 h: pooled human plasma dialysed against PBS, human plasma / PBS after dialysis, read-out: recovery in the plasma protein binding (equilibrium dialysis) experiment. As to the method:
Plasma was obtained by centrifugation (4 °C, 1600 g, 10 min, CF7D2, Hitachi Koki) of EDTA‐treated blood from three healthy male volunteers and was then pooled. […] Samples for M4 were mixed with deuterated M4 as an internal standard and acetonitrile/methanol (1:1, v/v). After centrifugation, the supernatant was injected into an LC/ESI-MS/MS system consisting of ACQUITY Ultra Performance LC (Waters) and API 4000 (AB Sciex) in positive-ion multiple-reaction monitoring (MRM) mode to measure M4 (Q1: m/z 457 and Q3: m/z 396) concentration. Chromatography was performed using ACQUITY UPLC BEH Phenyl (2.1 mm I.D. × 50 mm, 1.7 μm, Waters) at 60 °C; MP A: water/98% formic acid (1000/1, v/v), MP B: methanol/98% formic acid (1000/1, v/v), with a flow rate of 0.7 mL/min and a gradient program as follows: (time, % MP B): 0 min, 40%; 0.3 min, 40%; 1.9 min, 45%; 1.91 min, 90%; 2.20 min, 90%; 2.21 min, 40%; 2.70 min, stop. For the protein binding of M4, 1–5000 ng/mL in human plasma, and 0.5–2500 ng/mL in PBS were calibrated.
The recovery was calculated by the following equation.
Protein binding was calculated by the following equation.
Protein binding = (1−Cf/Cp) × 100 (%)
Where Cf and Cp represent the concentration in PBS and in plasma, respectively.

The conditions of data set [3]: at pH 3.575; cited from earlier work.
Data set [4] in a line: human ADME study: metabolite profiling in plasma, urine and faeces after single oral [14C]alectinib. Format: in vivo. The procedure:
Human plasma for protein binding was obtained from three healthy male volunteers. All participants provided written informed consent prior to study related procedures. The protocol of human ADME study was approved by the Independent Ethics Committee of the Stichting Beoordeling Ethiek Bio-Medisch Onderzoek (Assen, The Netherlands), and that of protein binding study was approved by Chugai IRB.
Plasma samples were pooled at 4 h and 6 h (4 h + 6 h), and 8 h and 12 h (8 h +12 h) across the six subjects. An 18-mL aliquot of pooled plasma was extracted with the same volume of acetonitrile twice, and then the extract was lyophilized. The resulting residue was further extracted with 3 mL of acetonitrile/water (9:1, v/v) twice and lyophilized again. The resulting residue was reconstituted with 900 μL of methanol/water (7:3, v/v) to obtain the supernatant as an HPLC sample in which plasma was 20-fold concentrated.
Urine samples were pooled at 0–24 h, and at 24–72 h across the six subjects. A 16-mL aliquot of pooled urine was concentrated 20-fold using the same process for plasma.
Faecal samples were pooled at 0–48 h, 48–96 h, and 96–168 h across the six subjects. One to two weight equivalents of water was added to the faecal samples and the samples were homogenized and mixed with the same volume of acetonitrile. After following the same procedure as for plasma, the residue was reconstituted with methanol/water (7:3, v/v) or dimethyl sulfoxide (DMSO) and centrifuged, and the faecal sample was concentrated 5-fold for use in analysis.
Alkaline Conditions: For metabolite profiling, the extracted samples from plasma, urine, and faeces were subjected to HPLC under alkaline conditions using XBridge™ Shield RP18, 3.5 μm, 4.6 × 150 mm (Waters), and a linear stepwise gradient with solvent A (consisting of water/30%trimethylamine at 100:0.1, v/v) and solvent B (consisting of acetonitrile/30%trimethylamine at 100:0.1, v/v), and a flow rate of 1 mL/min. Solvent B in the gradient started at 1% and then changed as follows: 30% (2 min), 60% (29 min), 98% (29.1 min), 98% (32 min), 1% (32.1 min), and 1% (40 min). The UV wavelength was set at 335 nm. […]
Plasma and Urine: To profile metabolites, 150 μL of the same HPLC sample of plasma or 100 μL of the same HPLC sample of urine was injected 3 separate time, and the eluates collected at 15-second intervals were combined to be measured by a liquid scintillation counter (LSC) (Tri-Carb 3100TR, PerkinElmer, Inc.) at a low level count mode for 10 min.
Faeces: A radiodetector (Radiomatic 625TR, PerkinElmer, Inc.) was used, and the area percentage of each radioactive peak on the radiochromatograms was calculated with analysis software (FLO-ONE Ver. 3.65, PerkinElmer, Inc.). […]

Another data set deals with ALK (Homo sapiens, UniProt Q9UM73). The data set can be described thus: inhibitory activity against ALK, cell-free TR-FRET kinase assay. Type of data set: biochemical. The following applies: 90 min at 30 °C, geometric mean of triplicates. As to the method: Solutions of test articles, substrate/ATP (2 μmol/L substrate peptide-0.2 mol/L HEPES buffer containing 60 μmol/L ATP, 20 mmol/L MgCl2, 0.2 mmol/L DTT, and 40 μmol/L Na3VO4) and the enzyme (final concentration of 200 ng/mL) were mixed in a clear-bottomed 384-well black plate and incubated for 90 min at 30 °C. After adding stop solution (100 mmol/L EDTA-0.1 mol/L HEPES buffer), TR-FRET reagent (2.5 nmol/L of LANCE® Eu-W1024-labeled anti-phosphotyrosine (PT66) and 6.25 μg/mL of Streptavidine SureLight® APC) was added and the time-resolved fluorescence was measured by EnVision HTS (Model 2104, PerkinElmer).
A general note: TR-FRET usually uses a lanthanide donor and a delayed reading to cut background.

In data set [5] the test system is NCI-H2228 NSCLC cell line that harbours EML4-ALK fusion. The data set is described as follows: cell growth inhibition, CellTiter-Glo, NCI-H2228 spheroid culture. Format: cell-based. Particulars: for IC50: Homo sapiens.
Protocol: Then test article solutions were added and the cell viability was measured after a 120-h incubation in a CO2 incubator. The luminescence was measured by EnVision HTS and the cell viability was calculated.
Setting [6] is: male, human, plasma, human plasma, 37 °C 24 h dialysis, mean ± SD of triplicates.
Setting [7] is: NCI-H2228 cells, 120-h incubation, geometric mean of triplicates.
The mark [8] stands for this setting: human, single oral 600 mg/67 μCi [14C]alectinib, pooled across n = 6, ND: Not detected.

Chain of ALK (Q9UM73 19-1620): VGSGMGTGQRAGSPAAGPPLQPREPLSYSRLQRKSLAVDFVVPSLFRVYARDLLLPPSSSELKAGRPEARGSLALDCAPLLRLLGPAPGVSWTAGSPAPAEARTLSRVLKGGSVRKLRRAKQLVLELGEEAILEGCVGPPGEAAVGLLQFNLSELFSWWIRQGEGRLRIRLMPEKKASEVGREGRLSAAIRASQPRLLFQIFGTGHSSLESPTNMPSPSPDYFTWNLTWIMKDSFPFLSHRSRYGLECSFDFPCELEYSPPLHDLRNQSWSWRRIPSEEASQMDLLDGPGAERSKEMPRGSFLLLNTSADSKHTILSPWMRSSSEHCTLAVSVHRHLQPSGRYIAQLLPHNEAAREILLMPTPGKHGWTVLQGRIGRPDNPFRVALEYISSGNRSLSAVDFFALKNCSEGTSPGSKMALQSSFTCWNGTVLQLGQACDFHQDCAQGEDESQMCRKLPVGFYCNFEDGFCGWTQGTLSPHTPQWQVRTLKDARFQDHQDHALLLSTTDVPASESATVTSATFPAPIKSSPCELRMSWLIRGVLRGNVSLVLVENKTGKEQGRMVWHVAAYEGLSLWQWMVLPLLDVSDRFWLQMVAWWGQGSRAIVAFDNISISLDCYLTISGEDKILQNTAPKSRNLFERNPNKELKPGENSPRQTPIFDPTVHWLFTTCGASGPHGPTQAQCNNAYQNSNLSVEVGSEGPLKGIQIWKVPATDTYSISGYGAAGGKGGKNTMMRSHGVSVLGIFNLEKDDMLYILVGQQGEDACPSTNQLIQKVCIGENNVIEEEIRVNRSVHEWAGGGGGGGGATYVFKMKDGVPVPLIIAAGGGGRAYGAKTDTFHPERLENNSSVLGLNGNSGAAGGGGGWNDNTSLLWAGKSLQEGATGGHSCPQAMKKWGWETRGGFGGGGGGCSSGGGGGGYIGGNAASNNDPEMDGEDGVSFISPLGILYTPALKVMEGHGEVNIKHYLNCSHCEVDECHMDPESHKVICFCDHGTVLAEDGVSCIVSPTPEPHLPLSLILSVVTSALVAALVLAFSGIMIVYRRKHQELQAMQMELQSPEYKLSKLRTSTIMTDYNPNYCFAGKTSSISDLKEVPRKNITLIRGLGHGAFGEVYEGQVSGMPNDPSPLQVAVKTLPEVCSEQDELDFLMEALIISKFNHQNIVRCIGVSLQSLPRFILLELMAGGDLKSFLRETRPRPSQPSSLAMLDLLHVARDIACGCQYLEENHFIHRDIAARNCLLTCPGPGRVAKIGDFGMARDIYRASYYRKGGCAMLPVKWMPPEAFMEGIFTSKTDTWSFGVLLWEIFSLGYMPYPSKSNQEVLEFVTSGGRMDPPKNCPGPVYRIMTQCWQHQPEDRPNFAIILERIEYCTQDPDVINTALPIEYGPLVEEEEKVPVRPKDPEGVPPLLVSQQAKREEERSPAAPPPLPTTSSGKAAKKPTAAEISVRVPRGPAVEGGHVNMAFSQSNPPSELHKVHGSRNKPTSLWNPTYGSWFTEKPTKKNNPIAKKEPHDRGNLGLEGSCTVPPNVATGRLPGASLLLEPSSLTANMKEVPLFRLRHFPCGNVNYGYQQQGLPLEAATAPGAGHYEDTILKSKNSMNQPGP

As usually defined, the logD is lipophilicity at a set pH, counting ionised and neutral species. `CCc1cc2c(cc1N1CCC(N3CCOCC3)CC1)C(C)(C)c1[nH]c3cc(C#N)ccc3c1C2=O` [Alectinib, 9-ethyl-6,6-dimethyl-8-(4-morpholino-1-piperidyl)-11-oxo-5H-benzo[b]carbazole-3-carbonitrile, reference compound]: the Cmax in plasma in data set [1] (human ADME study, 600 mg oral [14C]alectinib) is listed as 175 ng/mL. In addition, the “recovery of radioactivity within excretion in faeces” value in data set [1] (human, up to 168 h post-dose, % of dose administered) is 97.8%. The “recovery of radioactivity within excretion in urine” value in data set [1] (human, up to 168 h post-dose) is recorded as 0.5%. Further, in data set [2] (human plasma, all concentrations investigated), the “human plasma protein binding over the range of concentration investigated” value is recorded as “higher than 99%”. In data set [2] (male, human, plasma, human plasma, 0.1 μg/mL, 37 °C 24 h dialysis, mean ± SD of triplicates), the fraction unbound at 24 h, 0.1 μg/mL is 0.004. This molecule also showed a fraction unbound at 24 h, 1 μg/mL in data set [2] (setting [6]) of 0.003. Also, the fraction unbound at 24 h, 10 μg/mL in data set [2] (male, human, plasma, human plasma, 10 μg/mL, 37 °C 24 h dialysis, mean ± SD of triplicates) is 0.003. Also, the recovery at 24 h in data set [2] (male) amounted to 85 ± 1.7%. Further, in data set [3], the logD is reported as 1.96.

Take `CCc1cc2c(cc1N1CCC(NCCOCC(=O)O)CC1)C(C)(C)c1[nH]c3cc(C#N)ccc3c1C2=O` [M1a]: the “ratio of M1a peak to M1b peak, radiochromatogram” value in data set [4] (human faeces 48–96 h, fractionated M1, acidic HPLC conditions, radioactivity) is 1 to 9 and 1/9. The “ratio of M1a to M1b, extracted ion chromatogram (XIC)” value in data set [4] (human faeces 48–96 h, fractionated M1, acidic conditions, [M + H]+) is 1 to 3 and 1/3. Besides, the “ratio of M1a to M1b in the XIC, plasma” value in data set [4] (human plasma, LC-MS acidic conditions) was 1/8. Besides, the “ratio of M1a to M1b in the XIC, urine” value in data set [4] (human urine, LC-MS acidic conditions) is listed as 1/10.

The IC50 is the midpoint of a concentration-inhibition curve. Read a low IC50 as higher potency. Take `CCc1cc2c(cc1N1CCC(N(CCO)CC(=O)O)CC1)C(C)(C)c1[nH]c3cc(C#N)ccc3c1C2=O` [M1b]: the IC50 against ALK was 1.6 nM. In data set [5] (setting [7]), the IC50 worked out at 320 nM and the “IC50 Cell growth” value is on record as “much weaker effect”. The “fold shift in IC50 from the ALK enzyme inhibition assay to the cell growth inhibition assay” value in data set [5] (cell medium contained 10% FBS) is reported as approximately 200 fold.

Turning to `CCc1cc2c(cc1N1CCC(NCCO)CC1)C(C)(C)c1[nH]c3cc(C#N)ccc3c1C2=O` [M4, 9-ethyl-8-[4-(2-hydroxyethylamino)-1-piperidyl]-6,6-dimethyl-11-oxo-5H-benzo[b]carbazole-3-carbonitrile], the “AUC ratio for the percentage of total drug-related systemic exposure” value in data set [1] (human plasma, LC/MS drug concentration vs total radioactivity) is on record as 15%. The “amount of metabolite in faecal samples, % of the dose administered” value in data set [1] (human, faeces, single oral [14C]alectinib) is recorded as 5.8%. For the same molecule, in data set [1] (setting [8]), the “Percentage of drug related compound in analytical sample, Faeces 0–48 h” value was 1.1%; the “Percentage of drug related compound in analytical sample, Faeces 48–96 h” value is listed as 11.0%; the “Percentage of drug related compound in analytical sample, Faeces 96–168 h” value is recorded as 37.3%; the “Percentage of drug related compound in analytical sample, Plasma 4 h + 6 h” value is given as 7.0%. In data set [1] (setting [8]), the “Percentage of drug related compound in analytical sample, Plasma 8 h + 12 h” value is recorded as 9.9%; the “Percentage of drug related compound in analytical sample, Urine 0–24 h” value is 9.0%; the “Percentage of drug related compound in analytical sample, Urine 24–72 h” value is recorded as 24.2%. Further, the fraction unbound at 24 h, 0.3 μg/mL in data set [2] (male, human, plasma, human plasma, 0.3 μg/mL, 37 °C 24 h dialysis, mean ± SD of triplicates) is 0.009. Moreover, the fraction unbound at 24 h, 1 μg/mL in data set [2] (setting [6]) was 0.005. This molecule also had a fraction unbound at 24 h, 2 μg/mL in data set [2] (male, human, plasma, human plasma, 2 μg/mL, 37 °C 24 h dialysis, mean ± SD of triplicates) of 0.005. The fraction unbound at 24 h in data set [2] (male, human, plasma, human plasma, all concentrations investigated, read-out: human plasma protein binding over the range of concentration investigated) is less than 0.01. Also, the recovery at 24 h in data set [2] (male) was found to be 82.7 ± 2.5%. For the same molecule, on ALK, the IC50 was 1.2 nM. In addition, it took 37 nM to reach half-maximal inhibition in data set [5] (setting [7]) (IC50).

As for `CCc1cc2c(cc1N1CCC(N)CC1)C(C)(C)c1[nH]c3cc(C#N)ccc3c1C2=O` [M6, 8-(4-amino-1-piperidyl)-9-ethyl-6,6-dimethyl-11-oxo-5H-benzo[b]carbazole-3-carbonitrile], the “Percentage of drug related compound in analytical sample, Faeces 96–168 h” value in data set [1] (setting [8]) is 5.6%.
